In experiment [1] the test system is middle cerebral artery occluded rats. Put plainly: Infarct volume and edema 7 days post middle cerebral artery occlusion. It counts as in vivo. How it is done:
FIG. 12: Two mm coronal sections of brains stained with TTC to visualize the infarct area 7 days post middle cerebral artery occlusion (red indicates normal tissue and white indicates infarct tissue). Representative slices from groups are shown. IRL-1620 (5 μg/kg, IV) or isotonic saline (1 ml/kg, IV) was injected at 2, 4, and 6 hr post MCAO. BQ-788 (1 mg/kg, IV) was administered once 15 min prior to the first injection of IRL-1620 or vehicle.

Experiment [2] relates to Aβ induced oxidative stress in the rat brain. The experiment is described as follows: Oxidative stress markers (MDA, GSH, SOD) in brains of Aβ treated non-diabetic and diabetic rats. The experiment is classed as in vivo, Sprague-Dawley rats. The note with it: for Brain malondialdehyde (MDA) level: IRL-1620 3 μg i.c.v. daily 14 days. On the procedure:
Male Sprague-Dawley rats (Harlan, Indianapolis, Ind.) weighing 280-310 g were allowed to acclimate for at least 4 days before use. Animals were housed in a room with controlled temperature (23±1° C.), humidity (50±10%), and light (6:00 A.M. to 6:00 P.M.). Food and water were available continuously. Animal care and use for experimental procedures were approved by the Institutional Animal Care and Use Committee (IACUC) of Midwestern University. All anesthetic and surgical procedures were in compliance with the guidelines established by the IACUC of Midwestern University.
Amyloid-β (1-40) (Tocris Bioscience, Ellisville, Mo., USA), IRL-1620 [N-Succinyl-[Glu9, Ala11,15] endothelin 1] (American Peptide Co, Inc., Sunnyvale, Calif., USA) and BQ788 (American Peptide Co, Inc., Sunnyvale, Calif., USA) were dissolved in sterile saline and all the solutions were freshly prepared before injections. Ketamine (Butler Animal Health Supply, Dublin, Ohio, USA) was administered at a dose of 100 mg/kg, intraperitoneally (i.p.), and xylazine (Lloyd Laboratories, Shenandoah, Iowa, USA) was administered at a dose of 10 mg/kg, i.p. Rats were anesthetized with ketamine (100 mg/kg) and xylazine (10 mg/kg) and a lateral cerebral ventricle was cannulated by placing the rat in a stereotaxic (David Kopf Instruments, Tujunga, Calif., USA) instrument and fixing the cannula (coordinates: 1.0 mm lateral, 1.5 mm caudal to bregma and 4.0 mm deep from the bone). Cannula (Plastics One, Roanoke, Va., USA) was anchored with dental acrylic to three screws placed in the skull. The animals were allowed to recover from surgery for at least seven days. After 7 days, rats were treated with vehicle, Aβ (1-40), ETB receptor agonist and/or antagonist in the lateral cerebral ventricles using the implanted cannula. Vehicle, Aβ or ETB receptor agonist and antagonist were injected in a volume of 5 μl over a period of 5 minutes. Aβ (1-40) was used because it is highly soluble compared to Aβ (1-42) and induces endothelial dysfunction of both cerebral and systemic blood vessels in addition to memory deficit (Nitta et al., 1994; Niwa et al., 2000; Smith et al., 2004; Weller et al., 1998). Agents were delivered using 10 μl Hamilton syringe and agent treatments were carried out individually using separate 10 μl syringe. IRL-1620 was administered 1 hour after Aβ injection whereas BQ788 was administered 15 minutes prior to IRL-1620 injection. At the end of the experiment, placement of cannula was confirmed by injecting methylene blue dye (5 μl) and observing the site and extent of staining. All experiments were performed on day 15 (Briyal et al., 2011). Water maze testing was performed from day 15 to day 19 after which animals were euthanized. Animals used for oxidative stress measurements were euthanized on day 15 without being subjected to any behavioral testing. Diabetes mellitus type 2 was induced in rats belonging to the diabetic group by administering freshly prepared streptozotocin at the dose of 45 mg/kg, i.p. Streptozotocin was dissolved in 0.01 M sodium citrate buffer of pH 4.3. On day 3, blood glucose was obtained from the rat-tail and tested for hyperglycemia using the SureStep Complete Blood Glucose monitor kit. Rats with blood glucose levels above 11.1 mM were considered diabetic. Diabetic and non-diabetic animals were randomly divided into five groups (6 rats per group) (i) Sham, (ii) Aβ+Vehicle, (iii) Aβ+IRL-1620, (iv) Aβ+BQ788 (v) Aβ+BQ788+IRL-1620. Aβ (1-40) was administered intracerebroventricularly (i.c.v.) (20 μg in 3 equally divided doses i.e. 6.67 μg were injected 3 times for a total of 20 μg dose) on day 1, 7, and 14. Specific ETB receptor agonist, IRL-1620 (3 μg) and specific ETB receptor antagonist, BQ788 (10 μg) were administered i.c.v. daily for 14 days starting from day 1 of Aβ injection. The doses of IRL-1620 and BQ788 were selected on the basis of previous studies conducted in our laboratory (Leonard et al., 2011). […]

For experiment [3], the system named is middle cerebral artery occluded rats. The experiment is described as follows: 7 day survival following focal cerebral ischemia (MCAO). The experiment is classed as in vivo. On the procedure:
FIG. 13: Effect of ETB receptor agonist, IRL-1620, in presence and absence of BQ788 on 7 day survival of rats undergoing either sham surgery or middle cerebral artery occlusion.
Effect of IRL-1620 on 7 day survival of rats following focal cerebral ischemia: Studies were also conducted to determine the effect of stimulating ETB receptors using a selective agonist, IRL-1620, in rats with middle cerebral artery occlusion (MCAO). […] However, MCAO rats in the vehicle treated group presented with 38% mortality by 7th day. […] Preliminary results and supporting literature have prompted the investigation of the mechanism involved in neuroprotective and neurorestorative effects of stimulating ETB receptors in rats with cerebral ischemia.

Where [4] appears, read: Aβ treated diabetic rats, day 15.
Where [5] appears, read: Aβ treated non-diabetic rats, day 15.

*1 amine or outer side, *2 acyl side, *3 side chain or, on linkers, in order; H or OH if unused. Where no end group is shown, it is not given here. Suc = O=C(CCC(=O)[*:2])[*:1]

On to `CCCC[C@@H](NC(=O)[C@@H](Cc1cn(C(=O)OC)c2ccccc12)NC(=O)[C@H](CC(C)(C)C)NC(=O)N1[C@H](C)CCC[C@@H]1C)C(=O)O` [BQ788, reference compound], for which the Edema in experiment [1] (MCAO 7 days, BQ-788 followed by IRL-1620) was found to be 17.97±5.17%; in experiment [1] (MCAO 7 days, BQ-788 followed by vehicle), 17.02±3.17%. Further, in experiment [1] (MCAO 7 days, BQ-788 given with either vehicle or IRL-1620), the Infarct volume result is given as “did not reduce”. For the same compound, the “Brain superoxide dismutase (SOD) level” value in experiment [2] (Aβ treated diabetic rats, pretreated with BQ788 prior to IRL-1620) is listed as 16.52±0.45 U/mg protein; in experiment [2] (Aβ treated non-diabetic rats, pretreated with BQ788 prior to IRL-1620), 15.32±0.44 U/mg protein. Besides, the “IRL-1620 induced change in MDA levels” value in experiment [2] (Aβ treated rats, BQ788 administered prior to IRL-1620) is listed as “blocked”. Moreover, the “Brain reduced glutathione (GSH) level” value in experiment [2] (Aβ treated rats, pretreatment with BQ788 before IRL-1620, diabetic status not stated) was found to be 81.2±5.49 μg/g wet tissue. Moreover, the “Mortality during 7 day observation” value in experiment [3] is 25%.

For “Suc-Asp-Glu-Glu-Ala-Val-Tyr-Phe-Ala-His-Leu-Asp-Ile-Ile-Trp (Suc-DEEAVYFAHLDIIW) [IRL-1620]”, in experiment [1] (MCAO 7 days), the “Edema: infarcted hemisphere larger than non-infarcted hemisphere” value turned out to be 1.51±1.81%. In experiment [1] (MCAO for 7 days, IRL-1620 5 μg/kg IV at 2, 4, 6 hr post MCAO), this compound returned an Infarct volume of 54.06±14.12 mm^3. The “Reduction of infarct volume” value in experiment [1] (chronic study, 1 week (Leonard et al., 2012)) was found to be 69.49%. Moreover, in experiment [2] (setting [4]), the “Brain malondialdehyde (MDA) level” value is given as 315.09±5.25 nmol/g wet tissue, the “Brain reduced glutathione (GSH) level” value came out at 166.42±6.63 μg/g wet tissue and the “Brain superoxide dismutase (SOD) level” value was 21.4±1.65 U/mg protein. In experiment [2] (setting [5]), the “Brain malondialdehyde (MDA) level” value is listed as 278.47±8.55 nmol/g wet tissue, the “Brain reduced glutathione (GSH) level” value is listed as 192.74±6.26 μg/g wet tissue and the “Brain superoxide dismutase (SOD) level” value worked out at 22.26±1.16 U/mg protein. The “Mortality during 7 day observation” value in experiment [3] was “no mortality”.

Values taken from patent publication US10561704B2, “Compositions and methods for treating neuropsychiatric disorders using an endothelin-B receptor agonist” (MIDWESTERN UNIVERSITY, priority 2013, dated 2020).
